According to US20210369738A1, “PRODUCTION METHOD OF TELOMERASE ACTIVATORS AND TELOMERASE ACTIVATORS OBTAINED BY THIS METHOD” (IZMIR YUKSEK TEKNOLOJI ENSTITUSU, priority 2017, published 2021):

Assays:
[1] = as a telomerase activator; cited from earlier work
telomerase enzyme = target: T1, telomerase enzyme (Homo sapiens, UniProt O14746); experiment: Telomerase activation, TELOTAGGG PCR ELISAPLUS kit, HEKn cells; type: cell-based; settings: 24-hour incubation
T1 construct: host or cells: HEKn (human primary epidermal keratinocytes)
Protocol: Telomerase activation tests were performed on selected molecules as follows; For culturing HEKn (Human Primer Epidermal Keratinocyte, ATCC; PCS-200-010) cells, the cell medium containing the components given in Table 2 is prepared and the cells are grown in the Dermal Cell Basal medium (PCS-200-030) supplemented with components in 5% CO2 environment at 37° C.
Telomerase activation was performed using the TELOTAGGG PCR ELISAPLUS kit (Roche; 12013789001, 16× version), a highly sensitive and quantitative method, according to the manufacturer's protocol, as follows:
After application of the selected molecules to HEKn cell lines at the defined dose interval and completion of 24-hour incubation, cells are collected and counted by hemocytometer. 2×10^5 cells are transferred to clean microcentrifuge tubes and then centrifuged at 3000×g for 5 min (at 4° C.). The supernatant is removed and the cells in the pellet are suspended with 200 μl of lysis buffer (Solution 1) and incubated on ice for 30 min. After incubation the lysates are centrifuged at 16,000×g for 20 min (at 4° C.) and the cooled supernatant is transferred to clean microcentrifuge tubes.
PCR is designed for sample group and control group. 25 μl reaction mixture (Solution 2) and 5 μl internal standard solution (Solution 3) are transferred to the PCR tubes for both the positive and negative sample as well as for the sample to be investigated for activation or the prepared master mixture is taken to a 30 μl PCR tube to contain this content. For the samples to be tested, 2 μl of each PCR sample is added from the cell lysate. For the control group, 1 μl of the low or high concentration TS8 control sample (Solution 4 or 5) is transferred to a separate PCR tube. From the lysis buffer (Solution 1), 1 μl is transferred to a separate PCR tube.
For each sample, 10 μl of the denaturing agent (Solution 7) is added to the nuclease-free 96-well plate. 2.5 μl of the amplified product is transferred to the plate and incubated for 10 min at +15 and +25° C. 100 μL Hybridization Buffer T (Solution 8) is added to a portion of the samples, 100 μL Hybridization Buffer IS (Solution 9) is added to the other portion. After homogenization, 100 μl of the reaction mixture is transferred to the MP module coated with streptavidin and the MP module is carefully closed with the special coating paper. After completion of the transfer process, the MP module is shaken at 300 rpm for 2 hours at 37° C. After incubation, the hybridization solutions are removed. Each well is washed 3 times with 250 μl of 1× wash buffer (Solution 10). The prepared anti-DIG-HRP working solution (Solution 11) is added to each of the wells. The MP module is sealed with special coating paper and incubated for 30 min at 15-25° C. with shaking at 300 rpm and the solution is carefully removed from the wells. Each well is washed 5 times in 1× wash buffer (Solution 10). From room temperature TMB substrate solution (Solution 13), 100 μl is added to each well. The MP module is covered with special coating paper and incubated at 15-25° C. for 10-20 minutes at 300 rpm with shaking. The color change is terminated by adding the post-incubation termination agent (Solution 14). The samples are measured at […] in a microplate reader for 30 min. Compounds showing telomerase activation in the 1.5-fold and higher levels according to DMSO used as a negative control were considered active.

T1 sequence (O14746 whole entry): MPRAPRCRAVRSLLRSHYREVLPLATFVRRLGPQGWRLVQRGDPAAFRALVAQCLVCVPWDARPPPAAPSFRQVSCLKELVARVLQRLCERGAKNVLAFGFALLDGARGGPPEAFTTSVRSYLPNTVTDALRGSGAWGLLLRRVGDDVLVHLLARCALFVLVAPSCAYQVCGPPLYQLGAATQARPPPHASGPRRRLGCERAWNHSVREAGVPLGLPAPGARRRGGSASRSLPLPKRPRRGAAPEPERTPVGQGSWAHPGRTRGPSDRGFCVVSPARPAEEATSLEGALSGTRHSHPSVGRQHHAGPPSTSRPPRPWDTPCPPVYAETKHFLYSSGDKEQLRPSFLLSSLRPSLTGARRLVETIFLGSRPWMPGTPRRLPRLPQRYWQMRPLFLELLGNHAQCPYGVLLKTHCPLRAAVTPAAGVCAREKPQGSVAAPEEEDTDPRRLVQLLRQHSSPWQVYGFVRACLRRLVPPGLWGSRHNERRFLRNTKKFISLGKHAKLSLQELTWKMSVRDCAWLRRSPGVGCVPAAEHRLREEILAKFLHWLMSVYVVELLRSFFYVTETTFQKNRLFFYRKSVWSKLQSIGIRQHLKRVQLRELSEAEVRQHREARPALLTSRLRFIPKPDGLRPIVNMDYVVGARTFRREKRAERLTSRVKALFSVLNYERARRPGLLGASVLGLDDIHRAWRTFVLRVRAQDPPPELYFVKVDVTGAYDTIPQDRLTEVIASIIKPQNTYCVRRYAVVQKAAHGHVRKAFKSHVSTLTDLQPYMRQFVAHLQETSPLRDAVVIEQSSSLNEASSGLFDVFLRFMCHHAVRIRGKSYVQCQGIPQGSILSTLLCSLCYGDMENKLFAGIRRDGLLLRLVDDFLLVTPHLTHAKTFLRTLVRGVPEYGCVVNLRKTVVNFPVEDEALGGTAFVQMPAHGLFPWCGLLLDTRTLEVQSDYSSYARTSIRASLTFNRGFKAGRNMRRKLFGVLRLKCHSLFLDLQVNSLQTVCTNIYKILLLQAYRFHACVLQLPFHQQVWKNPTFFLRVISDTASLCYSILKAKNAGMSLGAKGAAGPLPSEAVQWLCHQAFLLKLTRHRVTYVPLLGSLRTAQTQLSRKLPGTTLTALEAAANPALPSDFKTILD

## CC(C)(O)[C@@H]1CC[C@](C)([C@H]2[C@@H](O)C[C@@]3(C)C4C[C@H](O)C5C(C)(C)[C@@H](O)CC[C@@]56C[C@@]46CC[C@]23C)O1 (some centres unmarked) [Cycloastragenol]
[1]
  bioavailability: 5%

## CC1(C)C(=O)C[C@H](O)[C@]23C[C@]24CC[C@]2(C)[C@@H]([C@@]5(C)CC[C@@H](C(C)(C)O)O5)[C@@H](O)C[C@@]2(C)C4C[C@H](O)C13 (some centres unmarked) [Molecule 1]
Telomerase enzyme; 30 nM
  Fold increase over negative control (DMSO): 1.73 fold
Telomerase enzyme; 100 nM
  Fold increase over negative control (DMSO): 0.72 fold
Telomerase enzyme; 300 nM
  Fold increase over negative control (DMSO): 0.74 fold
Telomerase enzyme; 1000 nM
  Fold increase over negative control (DMSO): 1.2 fold

## CC1(C)C(=O)CC[C@]23C[C@]24CC[C@]2(C)[C@@H]([C@@]5(C)CC[C@@H](C(C)(C)O)O5)[C@@H](O)C[C@@]2(CO)C4C[C@H](O)C13 (some centres unmarked) [Molecule 3]
Telomerase enzyme; 30 nM
  Fold increase over negative control (DMSO): 2.36 fold
Telomerase enzyme; 100 nM
  Fold increase over negative control (DMSO): 0.78 fold
Telomerase enzyme; 300 nM
  Fold increase over negative control (DMSO): 1.24 fold
Telomerase enzyme; 1000 nM
  Fold increase over negative control (DMSO): 1.07 fold

## CC(C)(O)[C@@H]1CC[C@](C)([C@H]2[C@@H](O)C[C@@]3(C)C4C[C@H](O)C5C(C)(C)[C@@H](O)CC[C@@]56C[C@@]46C[C@@H](O)[C@]23C)O1 (some centres unmarked) [Molecule 4]
Telomerase enzyme; 2 nM
  Fold increase over negative control (DMSO): 2.13 fold
Telomerase enzyme; 10 nM
  Fold increase over negative control (DMSO): 2.22 fold
Telomerase enzyme; 50 nM
  Fold increase over negative control (DMSO): 2.4 fold
Telomerase enzyme; 300 nM
  Fold increase over negative control (DMSO): 2.13 fold

## CC(C)(O)[C@@H]1CC[C@](C)([C@H]2[C@@H](O)C[C@@]3(C)C4C[C@H](O)C5C(C)(C)[C@@H](O)CC[C@@]56C[C@@]46C[C@H](O)[C@]23C)O1 (some centres unmarked) [Molecule 6]
Telomerase enzyme; 0.5 nM
  Fold increase over negative control (DMSO): 9.23 fold
Telomerase enzyme; 2 nM
  Fold increase over negative control (DMSO): 10 fold
Telomerase enzyme; 10 nM
  Fold increase over negative control (DMSO): 6.38 fold
Telomerase enzyme; 30 nM
  Fold increase over negative control (DMSO): 2.37 fold

## CC1(C)OC(=O)CC[C@]23C[C@]24CC[C@]2(C)[C@@H]([C@@]5(C)CC[C@@H](C(C)(C)O)O5)[C@@H](O)C[C@@]2(C)C4C[C@H](O)C13 (some centres unmarked) [Molecule 10]
Telomerase enzyme; 0.5 nM
  Fold increase over negative control (DMSO): 8.43 fold
Telomerase enzyme; 2 nM
  Fold increase over negative control (DMSO): 9.35 fold
Telomerase enzyme; 10 nM
  Fold increase over negative control (DMSO): 9.95 fold
Telomerase enzyme; 30 nM
  Fold increase over negative control (DMSO): 4.6 fold

## CC(C)(O)[C@@H]1CC[C@](C)([C@H]2[C@@H](O)C[C@@]3(C)C4C[C@H](O)[C@@H](C(C)(C)O)[C@@]5(CCC(=O)O)C[C@@]45CC[C@]23C)O1 (some centres unmarked) [Molecule 11]
Telomerase enzyme; 0.5 nM
  Fold increase over negative control (DMSO): 2.08 fold
Telomerase enzyme; 2 nM
  Fold increase over negative control (DMSO): 1.9 fold
Telomerase enzyme; 10 nM
  Fold increase over negative control (DMSO): 1.73 fold
Telomerase enzyme; 30 nM
  Fold increase over negative control (DMSO): 3.17 fold

## CC1(C)C(=O)CC[C@]23C[C@]24CC[C@]2(C)[C@@H]([C@@]5(C)CC[C@@H](C(C)(C)O)O5)[C@@H](O)C[C@@]2(C)C4C[C@H](O)C13 (some centres unmarked) [Molecule 12]
Telomerase enzyme; 0.5 nM
  Fold increase over negative control (DMSO): 4.65 fold
Telomerase enzyme; 2 nM
  Fold increase over negative control (DMSO): 2.14 fold
Telomerase enzyme; 10 nM
  Fold increase over negative control (DMSO): 1.78 fold
Telomerase enzyme; 30 nM
  Fold increase over negative control (DMSO): 0.84 fold

## CC(C)(O)[C@@H]1CC[C@](C)([C@H]2[C@@H](O)C[C@@]3(C)C4C[C@H](O)C5C(C)(C)[C@@H](O)CC[C@]5(C)C4=C[C@@H](O)[C@]23C)O1 (some centres unmarked) [Molecule 14]
Telomerase enzyme; 2 nM
  Fold increase over negative control (DMSO): 2.53 fold
Telomerase enzyme; 10 nM
  Fold increase over negative control (DMSO): 1.62 fold
Telomerase enzyme; 50 nM
  Fold increase over negative control (DMSO): 1.6 fold
Telomerase enzyme; 300 nM
  Fold increase over negative control (DMSO): 0.53 fold

## CC(C)(O)[C@@H]1CC[C@](C)([C@H]2[C@@H](O)C[C@@]3(C)C4C[C@H](O)C5C(C)(C)[C@@H](O)CC[C@]5(C)C4=C[C@H](O)[C@]23C)O1 (some centres unmarked) [Molecule 16]
Telomerase enzyme; 0.1 nM
  Fold increase over negative control (DMSO): 0.98 fold
Telomerase enzyme; 0.5 nM
  Fold increase over negative control (DMSO): 2.31 fold
Telomerase enzyme; 2 nM
  Fold increase over negative control (DMSO): 2.78 fold
Telomerase enzyme; 10 nM
  Fold increase over negative control (DMSO): 0.95 fold

## CC(C)(O)[C@@H]1CC[C@](C)([C@H]2[C@@H](O)C[C@@]3(C)C4C[C@H](O)C5C(C)(C)[C@@H](O)CC[C@]5(C)C4=CC(=O)[C@]23C)O1 (some centres unmarked) [Molecule 17]
Telomerase enzyme; 0.5 nM
  Fold increase over negative control (DMSO): 0.42 fold
Telomerase enzyme; 2 nM
  Fold increase over negative control (DMSO): 1.33 fold
Telomerase enzyme; 10 nM
  Fold increase over negative control (DMSO): 1 fold
Telomerase enzyme; 50 nM
  Fold increase over negative control (DMSO): 1.57 fold

## CC(C)(O)[C@@H]1CC[C@](C)([C@H]2[C@@H](O)C[C@@]3(C)C4C[C@H](O)[C@@H](C(C)(C)O)[C@](C)(CCC(=O)O)C4=CC[C@]23C)O1 (some centres unmarked) [Molecule 19]
Telomerase enzyme; 0.5 nM
  Fold increase over negative control (DMSO): 2.65 fold
Telomerase enzyme; 2 nM
  Fold increase over negative control (DMSO): 1.24 fold
Telomerase enzyme; 10 nM
  Fold increase over negative control (DMSO): 11.32 fold
Telomerase enzyme; 30 nM
  Fold increase over negative control (DMSO): 1.93 fold

## C=C(C)[C@@H]1[C@@H](O)CC2C(=CC[C@]3(C)[C@@H]([C@@]4(C)CC[C@@H](C(C)(C)O)O4)[C@@H](O)C[C@@]23C)[C@@]1(C)CCC(=O)O (some centres unmarked) [Molecule 20]
Telomerase enzyme; 0.5 nM
  Fold increase over negative control (DMSO): 9.01 fold
Telomerase enzyme; 2 nM
  Fold increase over negative control (DMSO): 5.23 fold
Telomerase enzyme; 10 nM
  Fold increase over negative control (DMSO): 6.04 fold
Telomerase enzyme; 30 nM
  Fold increase over negative control (DMSO): 7.86 fold

## CC1(C)C(=O)CC[C@]2(C)C3=CC[C@]4(C)[C@@H]([C@@]5(C)CC[C@@H](C(C)(C)O)O5)[C@@H](O)C[C@@]4(C)C3C[C@H](O)C12 (some centres unmarked) [Molecule 21]
Telomerase enzyme; 0.5 nM
  Fold increase over negative control (DMSO): 9.25 fold
Telomerase enzyme; 2 nM
  Fold increase over negative control (DMSO): 1.43 fold
Telomerase enzyme; 10 nM
  Fold increase over negative control (DMSO): 1.04 fold
Telomerase enzyme; 30 nM
  Fold increase over negative control (DMSO): 1.18 fold
